Source: patent publication US20090123565A9, “Copper-dependent non-traditional pro-inflammatory cytokine export and methods, compositions and kits relating thereto” (Maine Medical Center Research Institute, priority 2001, published 2009)

Experiments:
[1] = system: balloon-injured rat carotid artery; assay: Neointima formation after balloon injury of rat carotid artery (histomorphometry, I/M ratio); assay type: in vivo, Sprague-Dawley rats
Description: Seventy-nine Sprague-Dawley male rats (Charles River Laboratories) weighing 350 to 450 grams, at 12-16 weeks of age, were included in the study. All rats in this study were handled according to the animal welfare regulation of the Maine Medical Center Research Institute, and the study protocol has been approved by the Animal Care and Use Committee of that institution. The rats received humane care in accordance with the animal use principles of the American Society of Physiology. All rats were maintained under identical conditions of temperature (21±1° C.), humidity (60±5%), and light/dark cycle, and had free access to normal rat chow.
To assess the effect of time course of copper chelation in relation to the injury on the neointima formation, 5 additional groups of rats were studied. All of them were treated with TTM for 2 weeks before the injury, and then TTM was withheld as follows: at the day of the injury (n=6) as well as 4 days (n-5), 6 days (n=7), 8 days (n=6), and 10 days (n=6) after the balloon denudation.
Rats were anesthetized with an intraperitoneal injection of ketamine (50 mg/kg) and xylazine (2.2 mg/kg). Angioplasty of the carotid artery was performed with a balloon embolectomy catheter as previously described. Briefly, the balloon catheter (2F Fogarty, Edwards Laboratories) was introduced through the left external carotid artery into the aorta, and the balloon was inflated. The vessel was damaged by passing an inflated balloon through the lumen three times. The catheter was rotated when pulling back. At the time of the final experiment, the animals were euthanized after anesthesia. A midline abdominal incision exposing the distal abdominal aorta was made. After retrograde cannulation of the abdominal aorta at its bifurcation with a 18-gauge intravenous catheter, the arterial tree was cleared of blood by perfusion with 100 ml of PBS (pH 7.2), followed by in vivo fixation with either 4% formaldehyde in phosphate-buffered saline (pH 7.2) or acetone/ethanol solution in 1:1 ratio. The entire left and right carotid arteries were harvested, including the aortic arch, innominate artery and left carotid bifurcation, and further immersed in the respective fixative. The injured left common carotid arteries were cut in three sections at least 4 mm long from the proximal, middle and distal part. From each study group, a part from the untreated contra-lateral right common carotid artery (control) was taken as well. The specimens were then dehydrated through a graded ethanol series, and embedded in paraffin for sectioning. Other arteries were not perfusion-fixed but were removed and immediately frozen. Three different segments of the left carotid artery were used for histological, morphometric, and immunohistochemical studies.
Morphometric analysis of the arterial segment was carried out in a blind manner on cross-sections stained with hematoxylin-eosin. For each animal at least 3 sections originating from the proximal, middle and distal segment of the injured vessel were quantitatively measured. Using a computerized digital microscopic planimetry algorithm (Optimas, Version 5.22), the areas within the external elastic lamina (EEL area), the internal elastic lamina (IEL area), and the luminal area were measured. Other areas were calculated as follows: medial area=EEL area−IEL area; neointimal area=IEL area−luminal area; neointima-to-media (I/M ratio=neointimal area/medial area.

[2] = system: balloon-injured rat carotid artery; assay: S100A13, IL1, p40, PS expression in balloon-injured vessel wall (immunohistochemistry); assay type: in vivo, Sprague-Dawley rats
Protocol: In order to address the mechanisms underlying the effect of copper chelation on neointima formation, TTM was administered for 2 weeks before the balloon injury and daily after that until the animals were euthanized at the 4th and 7th day after the procedure. Accordingly, TTM-free animals euthanized 4 and 7 days after the injury were used as controls.
To evaluate S100A13, FGF1, p40 and IL-1α expression in balloon-injured arteries, paraffin-embedded specimens from the 4th, 7th and 14th day after the injury were cut into 5-μm cross sections, and mounted on glass slides. These sections were incubated in 10% hydrogen peroxide for 90 minutes to block endogenous peroxidase activity. Nonspecific binding was prevented by preincubating the sections with 5% bovine serum albumin (BSA; Sigma) in PBS. The sections were sequentially incubated with polyclonal rabbit anti-S100A13 antibody at a concentration of 1:200; polyclonal rabbit anti-FGF1 antibody at a concentration of 1:500; monoclonal mouse anti-p40 antibody at a concentration of 1:100; polyclonal rabbit anti-IL-1a antibody at a concentration of 1:50; phosphatidylserine (PS) antibody. After they were washed with PBS, the sections were incubated with anti-rabbit and anti-mouse IgG-conjugated horseradish peroxidase (Biorad) for an additional 30 minutes at room temperature. Each incubation was followed by a wash in PBS. Staining was visualized using the chromogen 0.06% 3,3′-diaminobenzidine/5% hydrogen peroxide in 0.05 mol/L Tris-HCl (pH 7.6). Control sections were incubated with nonimmune rabbit IgG at a concentration of 1:200.

ceruloplasmin = settings: cited from earlier work

Q: Which “neointima development, hematoxylin-eosin, vs controls” value ([1]; 4 days after the injury) does the source give for `[NH4+].[NH4+].[SH-].[SH-].[S]=[Mo]=[S]` [TTM, ammonium tetrathiomolybdate] here?
A: Its value is “no difference”.

Q: What about the intima/media ratio ([1]; 14 days after balloon injury, TTM 10 mg/kg daily started 1 week before injury, 2 weeks after, n=6, controls 1.76±0.105) of the same molecule?
A: Its intima/media ratio is 0.96±0.121.

Q: What about the intima/media ratio ([1]; 14 days after balloon injury, TTM 10 mg/kg daily started 2 weeks before injury, 2 weeks after, n=6, controls 1.76±0.105) of the same molecule?
A: The intima/media ratio was 0.83±0.006.

Q: What about the intima/media ratio ([1]; 14 days after balloon injury, TTM 10 mg/kg daily started on the day of injury, 2 weeks after, n=5, controls 1.76±0.105) of the same molecule?
A: Its intima/media ratio is 1.27±0.04.

Q: And the “reduction in the neointima formation in the rat carotid artery” value ([1]; TTM administration before and after injury, vs controls)?
A: Its value is “up to 53%”.

Q: And the intima/media ratio ([1]; TTM started 2 weeks before injury, continued 6 days after)?
A: Its intima/media ratio is 0.76±0.06.

Q: What about the intima/media ratio ([1]; TTM started 2 weeks before injury, continued 8 days after) of the same molecule?
A: Its intima/media ratio is 0.83±0.1.

Q: What about the intima/media ratio ([1]; TTM started 2 weeks before injury, continued 10 days after) of the same molecule?
A: The intima/media ratio was 0.79±0.013.

Q: What about the intima/media ratio ([1]; TTM started 2 weeks before injury, stopped at the day of the injury) of the same molecule?
A: Its intima/media ratio is 1.29±0.19.

Q: And the “neointima development, hematoxylin-eosin, vs controls” value ([1]; day 7 after the injury)?
A: The value was “more pronounced in the controls”.

Q: And the “I/M ratio compared to the controls” value ([1]; each TTM regimen, 14 days after balloon injury (FIG. 6E))?
A: Its value is “significant decrease”.

Q: And the “S100A13, IL1 and PS staining in the neointima” value ([2]; 4 and 7 days after injury)?
A: Its value is “no positive staining was detected”.

Q: And the IL1 positive staining ([2]; 7 and 14 days after the balloon injury)?
A: Its IL1 positive staining is “almost complete inhibition”.

Q: And the “presence of S100A13 compared to the controls” value ([2]; 7 and 14 days after the injury)?
A: The value was “significantly decreased”.

Q: And the “S100A13, IL1 and PS staining in the neointima” value ([2]; 14 days after the injury)?
A: The value was “only a few cells were positively stained”.

Q: And the phosphatidylserine flipping ([2]; balloon-injured arteries, controls did show it)?
A: Its phosphatidylserine flipping is “did not show phosphatidylserine flipping”.

Q: What about the “time to induce copper deficiency” value (ceruloplasmin; humans, safely) of the same molecule?
A: Its value is 2-4 weeks.

Q: What about the “ceruloplasmin reduction to” value (ceruloplasmin; patients with cancer, withstood for months and years (Brewer et al., 2000)) of the same molecule?
A: Its value is 20 % of baseline.
